# Assay results: patent US20170065593A1, “Combination” (Novartis AG, priority 2009, published 2017)
# Like-named read-outs stand apart in the source and are kept apart here.
# Key:
# 95 cancer cell lines = tested on: 95 cancer cell lines
# Method: (Compound A) or mTOR inhibitor (mTORi, Rapamycin) alone or a combination of both agents at a ratio of 1:2 (MEKi:mTORi) and cell proliferation/death was measured after 3 day drug exposure. Briefly, cells were plated in 384-well plates at 500 cells/well in culture media appropriate for each cell type, supplemented with 10% FBS and 1% penicillin/streptomycin, and incubated overnight at 37° C., 5% CO2. […] (two fold dilutions ranging from 7.3 uM-0.014 nM) or with mTOR inhibitor (two fold dilutions ranging from 14.6 uM-0.112 nM) or in combination with both compounds and incubated for 72 hours. Cell growth was measured using the CellTiterGlo (CTG) reagent (Promega) according to the manufacturer's protocol. Data were analyzed using the XLfit (IDBS Ltd.) curve-fitting tool for Microsoft Excel. Growth IC50 (gIC50) and Ymin values were generated using a four-parameter curve fit algorithm (XLFit algorithm #205).
# Results were expressed as a percent of the t=0 and plotted against the compound concentration. The T=0 value is normalized to 100% and represents the number of cells at the time of compound addition. […] Formula below was used to calculate mutually exclusive combination index (CI). Data were reported as log CI, where the logarithm value of CI was calculated.
# CI=IC50 of a+b/IC50 of a+IC50 of b+a/IC50 of b
# Synergy is defined as CI<1, additivity as CI=1 and antagonism as CI>1. Considering the variability of these proliferation assays we arbitrarily defined log CI>0.1 as antagonism, between −0.1 and 0.1 as no significant effect and <−0.1 as synergy.
# [1] = tested on: A549 lung cancer cell line; assay: Assay 2: cell growth (CellTiterGlo, 72 hours), Ymin; format: cell-based; conditions: percent of T=0 (T=0 = 100%)
# Method: FIG. 5 depicts the effect of MEK inhibitor, mTOR inhibitor and their combination on A549 lung cancer cell line growth. […] Cells were treated with MEK inhibitor (two fold dilutions ranging from 7.3 uM-0.014 nM) or with mTOR inhibitor (two fold dilutions ranging from 14.6 uM-0.112 nM) or in combination with both compounds and incubated for 72 hours. Cell growth was measured using the CellTiterGlo (CTG) reagent (Promega) according to the manufacturer's protocol. Data were analyzed using the XLfit (IDBS Ltd.) curve-fitting tool for Microsoft Excel. Growth IC50 (gIC50) and Ymin values were generated using a four-parameter curve fit algorithm (XLFit algorithm #205). Results were expressed as a percent of the t=0 and plotted against the compound concentration. […] Formula below was used to calculate mutually exclusive combination index (CI). Data were reported as log CI, where the logarithm value of CI was calculated. […] Similar analysis was performed for all cell lines and Ymin results are depicted in FIG. 6.
structure (smiles),measurement,setting,value
CO[C@H]1C[C@@H]2CC[C@@H](C)[C@@](O)(O2)C(=O)C(=O)N2CCCC[C@H]2C(=O)O[C@H]([C@H](C)C[C@@H]2CC[C@@H](O)[C@H](OC)C2)CC(=O)[C@H](C)/C=C(\C)[C@@H](O)[C@@H](OC)C(=O)[C@H](C)C[C@H](C)/C=C/C=C/C=C/1C [Rapamycin],% of cells with cytotoxic response,95 cancer cell lines; KRAS WT / PI3K WT cell lines,10%
same,% of cells with cytotoxic response,95 cancer cell lines; KRAS WT / PI3K mutant cell lines,5%
same,% of cells with cytotoxic response,95 cancer cell lines; KRAS WT cell lines,10%
same,% of cells with cytotoxic response,95 cancer cell lines; KRAS mutant / PI3K WT cell lines,11%
same,% of cells with cytotoxic response,95 cancer cell lines; KRAS mutant / PI3K mutant cell lines,6%
same,% of cells with cytotoxic response,95 cancer cell lines; KRAS mutant cell lines,8%
same,% of cells with cytotoxic response,95 cancer cell lines; PI3K WT cell lines,8%
same,% of cells with cytotoxic response,95 cancer cell lines; PI3K mutant cell lines,12%
same,percentage of cell undergoing death (cytotoxic),"95 cancer cell lines; all cell lines, Ymin below T=0",9.5%
same,cell lines undergoing death,"95 cancer cell lines; single agent, across KRAS and PI3K mutational subgroups",≤ 11%
same,Ymin (lower Y value at any compound concentration),[1],487%
